Source: patent US20040106877A1, “Method and device for determining state of skin surface” (priority 2000, published 2004)
Like-named read-outs stand apart in the source and are kept apart here. No end group written: not given here.

Key:
Assay type in all cases: cell-based
[1] = system: skin sections of a hairless mouse; assay: Skin surface potential difference relative to culture solution, substance P (SP) stimulation; settings: FIG. 3
[2] = system: skin sections of a hairless mouse; assay: Skin surface potential difference relative to culture solution, capsaicin coated on the skin surface; settings: FIG. 6
Excerpt: In a second method, upon measuring the skin surface condition of the first method, stimulation is imparted further to the skin model comprising a skin section and a culture solution to measure aforementioned potential difference. This potential difference changes as stimulation is imparted. This change means that a stream of ions has occurred in the epidermis. The direction of a stream of ions differs depending on stimulation. When there is a change compared to the value of untreated skin, it is interpreted that stimulation producing mobility of ions is imparted to the epidermis. The degree of skin stimulation is measured from the changed value. Upon imparting stimulation, the place of stimulation may be on skin surface or culture solution. In the case of skin surface, examples of methods for imparting stimulation include coating skin with a stimulating substance and physical stimulation. Also, in the case of culture solution, the method used is addition of stimulating substances. Examples of these stimulating substances include neuropeptide, histamine, surfactant, organic acid, and capsaicin. […] In addition, examples of said physical stimulation include barrier destruction by a cellophane adhesive tape and the like.

[3] = system: skin sections of a hairless mouse

## [D-Arg1, D-Trp7, 9, Leu11]-SubstanceP [SP antagonist]
[1]; drug added to culture solution before adding SP, observed for 2 hours
  inhibition of the SP-induced change in potential difference: no rapid and significant change in potential difference is produced

## Oc1cc2c(cc1O)CN(C(=S)NCCc1ccc(Cl)cc1)CCC2 [capsazepine]
[2]; drug coated on skin surface after capsaicin
  inhibition of the capsaicin-induced change in potential difference: the range of change in potential difference is reduced

## substance P (RPKPQQFFGLM; ends and bridges not checked; UniProt P20366 58-68, looked up) [SP, neuropeptide used as a stimulating substance]
[1]; SP added to culture solution
  time after addition when the potential difference returns to a value close to control: 2 h
  time of peak of the potential difference change after addition: 1 h
[1]; SP added to culture solution, compared with non-treated skin surface (control), average of five measurements
  change in potential difference of the skin surface relative to culture solution after stimulating substance: a rapid change in a potential difference is produced

## Nc1ccncc1 [AP, aminopyridine]
[3]; drug added to culture solution after tape stripping, average of five measurements, FIG. 4, FIG. 5
  inhibition of the tape-stripping-induced change in potential difference: reduces the change in potential difference

## NC1=N[C@H](O)[C@H]2[C@H]3O[C@]4(O)O[C@@H]([C@@H](O)[C@@]2(N1)[C@@H]4O)[C@]3(O)CO [TTX, tetrodotoxin]
[3]
  inhibition of the tape-stripping-induced change in potential difference: does not inhibit the change in a potential difference

## COc1cc(CNC(=O)CCCC/C=C/C(C)C)ccc1O [capsaicin]
[2]; capsaicin coated on skin surface
  time of maximum change in potential difference after coating: 0.5 h
[2]; capsaicin coated on skin surface, compared with non-treated skin surface (control), average of five measurements
  change in potential difference of the skin surface relative to culture solution after stimulating substance: a rapid change in potential difference
